Target: Metallo-beta-lactamase type 2 (Klebsiella pneumoniae, UniProt C7C422)
Assay: Inhibition of NDM1 (unknown origin)

Metallo-beta-lactamase type 2, sequence (C7C422 whole entry): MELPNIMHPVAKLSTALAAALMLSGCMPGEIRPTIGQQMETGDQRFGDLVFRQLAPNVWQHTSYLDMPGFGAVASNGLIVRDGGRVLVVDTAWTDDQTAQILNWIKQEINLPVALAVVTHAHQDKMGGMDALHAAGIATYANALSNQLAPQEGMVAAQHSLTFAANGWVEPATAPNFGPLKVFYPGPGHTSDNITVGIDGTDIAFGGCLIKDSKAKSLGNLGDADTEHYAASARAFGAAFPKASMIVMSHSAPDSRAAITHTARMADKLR

Structure (SMILES): O=C(O)c1ccccn1
- IC50: 17.1 µM
